Key:
[1] = test system: PC3 cells; assay: Inhibition of proliferation of PC3 cells; type: cell-based, human
Method: (§1) Cancer cell lines were obtained from the American Type Culture Collection (Manassas, Va.). Cell lines were maintained in RPMI1640 supplemented with glutamine and 5% fetal bovine serum containing SerXtend (Irvine Scientific) when appropriate insulin, as directed by the ATCC. The fetal bovine serum used for culture was heat-inactivated by maintaining the serum at 56° C. for 1 h. Cell lines used were a T celleukemia (Jurkat), prostate cancer (PC3, DU145, LNCAP), breast cancer (MDA468, MDA361, MCF7), pancreatic cancer (MIA PaCa2), liver cancer (Hep G2), lung cancer (A549, NCl H460), colon cancer (HT29, HCT 116), and ovarian cancer (SK-OV-3).
(§2) LNCaP cells at 2.5×10^4 cells/well or PC-3 cells at 5×10^4 cells/well, both in a final volume of […], were plated in triplicate in standard flat-bottomed 96-well tissue culture plates in the presence of drug or vehicle (DMSO). Unless otherwise indicated, cells were grown for 48 h at 37° C. in a CO2 incubator. Relative cell growth was determined with the CellTiter 96 aqueous cell proliferation assay (Promega, Madison, Wis.) as described by the manufacturer using an automated plate reader. Results were calculated in a blinded fashion and are the means of triplicate determinations.

[2] = test system: MDA-361 cells; assay: Inhibition of calcium entry into MDA-361 cells; type: cell-based; details: MDA361, NE = no effect at highest concentration of drug tested, read-out: Ca2+: IC50 for inhibition of calcium entry, MDA-361
Method: (§3) Cells were incubated in growth media containing 1 uM of the acetoxy-methyl ester of the Ca2+-sensitive fluorescent dye indo-1 (indo-1/AM; Molecular Probes, Eugene, Oreg.) for 1 h at 37° C. Cells were washed three times in buffer A [10 mM HEPES (pH 7.4), 1 mM MgCl2, 3 mM KCl, 1 mM CaCl2, 140 mM NaCl, 0.1% glucose, and 1% fetal bovine serum] and suspended to a final concentration of 10^6 cells/ml. Before stimulation, cells were warmed to 37° C. Changes in [Ca2+]i were monitored in an SLM 8100C spectrofluorimeter (SLM/Aminco; Urbana, Ill.) using previously published methods (Densmore, J. J., Haverstick, D. M., Szabo, G., and Gray, L. S. 1996. A voltage operable current is involved in activation-induced Ca^2+ entry in human lymphocytes whereas ICRAC has no apparent role. Am. J. Physiol. 271:C1494-C1503; Haverstick, D. M., Densmore, J. J., and Gray, L. S. 1998. Calmodulin regulation of Ca^2+ entry in Jurkat T cells. Cell Calcium 23:361-368).

[3] = test system: MDA-231 cells; assay: Inhibition of calcium entry into MDA-231 cells; type: cell-based; details: Homo sapiens, MDA-MB-231, NE = no effect at highest concentration of drug tested, read-out: Ca2+: IC50 for inhibition of calcium entry, MDA-231
Method: as §3

[4] = test system: LNCaP cells; assay: Inhibition of proliferation of LNCaP cells; type: cell-based; details: Homo sapiens, NE = no effect at highest concentration of drug tested, read-out: prolif: IC50 for inhibition of proliferation, LNCaP
Method: as §1, §2

[5] = test system: MDA-435 cells; assay: Inhibition of calcium entry into MDA-435 cells; type: cell-based; details: MDA435, NE = no effect at highest concentration of drug tested, read-out: Ca2+: IC50 for inhibition of calcium entry, MDA-435
Method: as §3

[6] = test system: MDA-231 cells; assay: Inhibition of proliferation of MDA-231 cells; type: cell-based; details: Homo sapiens, MDA-MB-231, NE = no effect at highest concentration of drug tested, read-out: prolif: IC50 for inhibition of proliferation, MDA-231
[7] = test system: MDA-435 cells; assay: Inhibition of proliferation of MDA-435 cells; type: cell-based; details: MDA435, NE = no effect at highest concentration of drug tested, read-out: prolif: IC50 for inhibition of proliferation, MDA-435
[8] = test system: Jurkat cells; assay: Inhibition of proliferation of Jurkat cells; type: cell-based, human; details: Jurkat
Method: as §1, §2

[9] = test system: MDA-361 cells; assay: Inhibition of proliferation of MDA-361 cells; type: cell-based; details: MDA361, NE = no effect at highest concentration of drug tested, read-out: prolif: IC50 for inhibition of proliferation, MDA-361
Method: as §1, §2

[10] = test system: LNCaP cells; assay: Inhibition of calcium entry into LNCaP cells; type: cell-based; details: Homo sapiens, NE = no effect at highest concentration of drug tested, read-out: Ca2+: IC50 for inhibition of calcium entry, LNCaP
Method: as §3

[11] = test system: Jurkat cells; assay: Inhibition of calcium entry into Jurkat cells (indo-1 fluorescence); type: cell-based, human; details: Homo sapiens; Jurkat; NE = no effect at highest concentration of drug tested; read-out: Ca2+: IC50 for inhibition of calcium entry, Jurkat
Method: as §3, with “8100C” left out, “([…].,” for “(Densmore, J. J., Haverstick, D. M.,”, “271:[…].,” for “271:C1494-C1503; Haverstick, D. M., Densmore, J. J.,”

[12] = test system: PC3 cells; assay: Inhibition of calcium entry into PC3 cells; type: cell-based; details: Homo sapiens, PC-3, NE = no effect at highest concentration of drug tested, read-out: Ca2+: IC50 for inhibition of calcium entry, PC3
Method: as §3

[13] = molecular target: T1, α1H isoform of T type Ca2+ channels (Homo sapiens, UniProt O95180); assay: Inhibition of Ca2+ current through transfected α1H channels; type: cell-based; details: FIG. 7
T1 construct: expressed in transfected cells; host or cells: HEK293 (stably transfected)
T1 sequence (O95180 whole entry, canonical isoform): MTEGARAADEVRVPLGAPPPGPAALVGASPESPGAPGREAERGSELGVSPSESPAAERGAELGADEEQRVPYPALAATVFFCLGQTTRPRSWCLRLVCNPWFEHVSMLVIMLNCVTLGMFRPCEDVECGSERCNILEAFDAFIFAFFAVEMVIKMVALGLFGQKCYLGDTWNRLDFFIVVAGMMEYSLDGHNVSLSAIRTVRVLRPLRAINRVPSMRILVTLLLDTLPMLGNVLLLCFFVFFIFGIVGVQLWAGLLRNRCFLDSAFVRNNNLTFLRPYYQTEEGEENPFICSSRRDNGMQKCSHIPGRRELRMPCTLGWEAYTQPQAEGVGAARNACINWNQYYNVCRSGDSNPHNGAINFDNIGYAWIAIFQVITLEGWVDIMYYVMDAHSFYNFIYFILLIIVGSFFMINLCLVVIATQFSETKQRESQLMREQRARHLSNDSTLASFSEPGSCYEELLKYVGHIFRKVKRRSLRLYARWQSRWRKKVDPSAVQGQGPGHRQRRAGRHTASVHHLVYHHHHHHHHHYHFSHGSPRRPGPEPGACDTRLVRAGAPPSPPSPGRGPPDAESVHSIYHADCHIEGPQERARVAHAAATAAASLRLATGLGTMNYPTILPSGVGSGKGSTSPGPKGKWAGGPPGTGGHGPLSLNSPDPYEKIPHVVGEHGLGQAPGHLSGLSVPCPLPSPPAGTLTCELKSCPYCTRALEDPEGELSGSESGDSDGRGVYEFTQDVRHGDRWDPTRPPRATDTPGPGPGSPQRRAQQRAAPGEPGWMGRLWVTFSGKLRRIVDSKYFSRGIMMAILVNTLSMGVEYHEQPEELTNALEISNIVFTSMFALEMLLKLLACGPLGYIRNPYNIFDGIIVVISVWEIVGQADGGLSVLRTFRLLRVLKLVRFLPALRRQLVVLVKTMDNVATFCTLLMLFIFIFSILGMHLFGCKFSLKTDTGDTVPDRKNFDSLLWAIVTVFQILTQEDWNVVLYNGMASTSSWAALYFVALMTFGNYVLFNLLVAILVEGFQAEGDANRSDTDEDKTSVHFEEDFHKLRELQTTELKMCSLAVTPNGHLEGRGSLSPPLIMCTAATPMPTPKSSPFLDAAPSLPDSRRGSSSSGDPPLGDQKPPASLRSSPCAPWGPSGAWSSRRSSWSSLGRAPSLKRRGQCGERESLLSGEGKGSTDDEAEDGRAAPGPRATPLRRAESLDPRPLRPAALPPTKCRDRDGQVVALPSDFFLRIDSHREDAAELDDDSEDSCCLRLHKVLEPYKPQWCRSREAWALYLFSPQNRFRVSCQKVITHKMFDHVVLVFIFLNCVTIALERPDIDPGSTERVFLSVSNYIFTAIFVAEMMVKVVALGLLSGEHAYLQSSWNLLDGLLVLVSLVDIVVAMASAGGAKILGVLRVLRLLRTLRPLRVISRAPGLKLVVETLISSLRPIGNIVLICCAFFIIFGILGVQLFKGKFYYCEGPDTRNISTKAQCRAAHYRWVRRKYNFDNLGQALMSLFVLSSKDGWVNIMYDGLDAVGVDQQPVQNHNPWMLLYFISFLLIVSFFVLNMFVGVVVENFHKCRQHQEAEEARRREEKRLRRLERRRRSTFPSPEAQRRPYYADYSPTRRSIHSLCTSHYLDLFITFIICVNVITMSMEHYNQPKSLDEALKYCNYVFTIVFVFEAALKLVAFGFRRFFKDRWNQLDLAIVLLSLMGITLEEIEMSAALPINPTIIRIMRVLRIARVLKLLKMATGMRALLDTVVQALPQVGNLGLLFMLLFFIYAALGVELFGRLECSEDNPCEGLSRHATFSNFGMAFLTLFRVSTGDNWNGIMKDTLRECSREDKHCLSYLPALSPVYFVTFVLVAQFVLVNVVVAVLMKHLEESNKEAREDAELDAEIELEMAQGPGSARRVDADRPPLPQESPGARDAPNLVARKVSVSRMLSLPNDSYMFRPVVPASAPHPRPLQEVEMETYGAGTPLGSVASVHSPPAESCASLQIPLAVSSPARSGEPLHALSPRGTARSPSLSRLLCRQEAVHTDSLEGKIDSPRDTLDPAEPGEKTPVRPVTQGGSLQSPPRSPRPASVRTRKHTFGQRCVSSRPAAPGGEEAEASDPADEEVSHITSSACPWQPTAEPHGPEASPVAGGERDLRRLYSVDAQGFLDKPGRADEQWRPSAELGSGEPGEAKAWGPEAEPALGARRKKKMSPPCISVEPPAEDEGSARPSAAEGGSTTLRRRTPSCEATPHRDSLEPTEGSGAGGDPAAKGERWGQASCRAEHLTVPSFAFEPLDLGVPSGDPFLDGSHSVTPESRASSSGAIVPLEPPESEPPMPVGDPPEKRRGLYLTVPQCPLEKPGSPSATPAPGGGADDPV

[14] = test system: HEK293 cells stably transfected the α1H gene; assay: Proliferation of HEK293 cells stably transfected with α1H; type: cell-based; details: FIG. 5
[15] = test system: human PC3 prostate cancer cells; details: xenografted PC3, Haverstick et al. 2000; cited from earlier work
[16] = Homo sapiens, PC-3, PC3, NE = no effect at highest concentration of drug tested, read-out: prolif: IC50 for inhibition of proliferation, PC3
[17] = Homo sapiens, NE = no effect at highest concentration of drug tested, read-out: prolif: IC50 for inhibition of proliferation, Jurkat
[18] = FIG. 6 panel B, read-out: IC50, proliferation of PC3 human prostate cancer cells

IC50 [1, 16] | IC50 [2] | IC50 [3] | IC50 [4] | IC50 [5] | IC50 [8, 17] | IC50 [10] | IC50 [11] | IC50 [12] | IC50 [1, 18] | IC50 [13] | IC50 ([8]; 48 hrs, in the absence of ionomycin, read-out: IC50 of TH-1177 for inhibition of proliferation) | IC50 ([8]; 48 hrs, in the presence of 30 uM ionomycin, read-out: IC50 of TH-1177 for inhibition of proliferation) | Compound | IC50 [6] | IC50 [7] | IC50 [9] | proliferation of stably transfected HEK293 cells [14] | lifespan of nude mice inoculated with human PC3 prostate cancer cells [15]
11.5 µM | 20 µM | 10 µM | 3.5 µM | 10 µM | 7.5 µM | 10 µM | 10 µM | 10 µM | – | – | – | – | COc1ccc(CCNCCOC(c2ccccc2)c2ccc(Cl)cc2)cc1 (stereo not drawn) [Compound 3.8] | 10.6 µM | 15.7 µM | 7.6 µM | – | –
4 µM | 5 µM | 10 µM | 1.6 µM | 10 µM | 3.8 µM | 3 µM | 3 µM | – | – | – | – | – | COc1ccc(CNCCOC(c2ccccc2)c2ccc(Cl)cc2)cc1 (stereo not drawn) [Compound 3.9] | 11.7 µM | 12 µM | 4 µM | – | –
10 µM | 10 µM | ~20 µM | 5.5 µM | 15 µM | 3.7 µM | 15 µM | 3 µM | ~15 µM | – | – | – | – | COc1ccc(CCCNCCOC(c2ccccc2)c2ccc(Cl)cc2)cc1 (stereo not drawn) [Compound 3.4] | 4 µM | 10 µM | 4 µM | – | –
33 µM | 25 µM | 10 µM | 25 µM | 10 µM | 50 µM | 10 µM | 7 µM | 30 µM | – | – | – | – | COc1ccc(C(O)CCCCOC(c2ccccc2)c2ccc(Cl)cc2)cc1 (stereo not drawn) [Compound 3.5] | 50 µM | 65 µM | 45 µM | – | –
– | – | – | – | – | – | – | – | – | 14 µM | 0.8 µM | 17.8 µM | 4.6 µM | COc1ccc(CCN2CCC[C@H]2COC(c2ccccc2)c2ccc(Cl)cc2)cc1 (stereo partly drawn) [TH-1177] | – | – | – | inhibits proliferation | significantly extended the lifespan
> 100 µM | > 100 µM | > 100 µM | ~100 µM | > 100 µM | > 100 µM | > 100 µM | > 100 µM | > 100 µM | – | – | – | – | COc1ccc(C(=O)CCCCOC(c2ccccc2)c2ccc(Cl)cc2)cc1 (stereo not drawn) [Compound 3.6] | > 100 µM | > 100 µM | > 100 µM | – | –
– | – | – | – | – | – | – | – | – | 42 µM | 7 µM | – | – | COc1ccc(CCN2CCCC2COC(c2ccccc2)c2ccc(Cl)cc2)cc1 (stereo not drawn) [TH-1211] | – | – | – | – | –
11 µM | – | 30 µM | 7 µM | – | 30 µM | – | 30 µM | 30 µM | – | – | – | – | COc1ccc(CCCCNCCC(c2ccccc2)c2ccc(Cl)cc2)cc1 (stereo not drawn) [Compound 3.21] | 15 µM | 9 µM | – | – | –
11 µM | 10 µM | 10 µM | 3.5 µM | 25 µM | 4 µM | 10 µM | 10 µM | – | – | – | – | – | COc1ccc(CNCCCCCC(c2ccccc2)c2ccc(Cl)cc2)cc1 (stereo not drawn) [Compound 3.1] | 8 µM | 12 µM | 8 µM | – | –
9 µM | 6 µM | 8 µM | 2 µM | 10 µM | 3 µM | 5 µM | 3 µM | 10 µM | – | – | – | – | COc1ccc(CNCCCCOC(c2ccccc2)c2ccc(Cl)cc2)cc1 (stereo not drawn) [Compound 3.2] | 10 µM | 10.5 µM | 4 µM | – | –
– | – | – | – | – | – | – | – | – | – | – | – | – | COCC(=O)O[C@]1(CCN(C)CCCc2nc3ccccc3[nH]2)CCc2cc(F)ccc2[C@@H]1C(C)C [mibefradil, reference compound] | – | – | – | inhibits proliferation | –

— patent US20090234019A1, “T Type Calcium Channel Inhibitors” (priority 2004, published 2009)
